Laboratory results: article PMC11458808, “Identification and development of a series of disubstituted piperazines for the treatment of Chagas disease” (European Journal of Medicinal Chemistry, 2022)
Converted amounts (≈) assume the structure as drawn.

Key:
[1] = system: T. cruzi infected Vero cells; assay: Washout assay; assay type: cell-based, Trypanosoma cruzi; conditions: 8 days treatment
Experimental: (Supplementary Information, Fig. S1). We tested 1 in a T. cruzi washout assay to assess the compound's ability to clear all parasites in vitro. In this experiment, T. cruzi, cultured in Vero cells were treated with compound 1 at 20- to 30-fold the EC50 for 8 days (with compound being re-supplemented after 4 days). After treatment, the culture medium containing compound 1 was removed, the cell monolayer was washed extensively and then incubated with fresh medium containing no compound 1. […] The same result was obtained in three independent experiments (Supplementary Information, Table S1). […] We therefore ran a 4-day PK study on 1, dosing at 50 mg/kg twice daily. As the intrinsic clearance was very high, compound 1 was co-dosed with 1-ABT (1-aminobenzotriazole) to inhibit CYP-mediated degradation and maximise exposure. […] As this was a novel series with an unknown mechanism of action, the PKPD drivers were unknown, so this coverage was considered suitable for progression to an animal model of Chagas disease. Compound 1 was dosed twice daily at 50 mg/kg for 5 days in an acute Chagas disease mouse efficacy study. This mouse model, developed by the Kelly laboratory, is able to distinguish between benznidazole (clinically effective) and posaconazole (clinically ineffective).
1.2 Washout assay: Vero cells were infected overnight at MOI 5 with T. cruzi X10/7 A1 trypomastigotes in MEM media (Gibco) containing 10% FCS (Hyclone) followed by washing of the monolayer to remove any extracellular trypomastigotes. 24 h later, infected cells were trypsinised and plated in T25 flasks in presence of compounds at the indicated concentrations and incubated for 8 days in MEM media (Gibco) containing 1% FCS. Four days into the treatment the media was replaced with fresh compound-containing media. After the treatment period, monolayers were washed extensively. The cultures were then maintained, replacing media twice weekly, until trypomastigotes could be observed by light microscopy. Observations were carried out twice weekly for up to 60 days post washout.
Results for three independent washout experiments (experiment c is reported in the main manuscript). T. cruzi infected Vero cells were treated for 8 days at the indicated concentrations (compounds replenished after 4 days), followed by extensive washing to remove compounds and incubation until parasites were observed microscopically. ^a day after washout of compounds on which egressed parasites were detected first.

[2] = system: intracellular T. cruzi X10/7 A1 amastigotes; assay: Intracellular T. cruzi assay; assay type: cell-based, Trypanosoma cruzi; conditions: for EC50: Trypanosoma cruzi, read-out: T. cruzi (pEC50) (converted); for EC50 / T. cruzi (pEC50): potency against intracellular T. cruzi amastigotes, at least three independent replicates, standard deviations ≤0.2; for Activity in the intracellular T. cruzi assay (in words): purified compound
Experimental: 1.1 Intracellular T. cruzi assay: Potency against intracellular T. cruzi X10/7 A1 amastigotes was determined as described previously with as sole modification that the compound treatment duration was increased from 72h to 96h.

[3] = Intrinsic clearance in mouse liver microsomes; assay type: in vitro ADME; conditions: for Mouse CLi: mouse liver microsomal intrinsic clearance
Experimental: 2.2 Intrinsic clearance: This assay was conducted as previously described in [5].

[4] = Aqueous (kinetic) solubility by CAD; assay type: physicochemical; conditions: kinetic solubility measured by CAD
Experimental: 2.1 Aqueous solubility: This assay was conducted as previously described in [4].

[5] = ChromLogD pH7.4 (chromatographic hydrophobicity index); assay type: physicochemical; conditions: pH 7.4, CHIpH7.4 × 0.0857–2; for chromatographic logD: read-out: ChromlogDpH7.4

Mouse CLi [3] [mL/min/g] | solubility [4] [µM] | chromatographic logD [5] | Clearance (mouse liver microsomal) [3] [mL/min/g] | Compound | Relapse Day ([1]; experiment a, 0.2 µM, 50-fold EC50) [days] | Relapse Day ([1]; experiment b, 0.2 µM, 50-fold EC50) [days] | Relapse Day ([1]; experiment c, 0.1 μM, 25-fold EC50) [days] | EC50 [2] [µM] | Activity in the intracellular T. cruzi assay (in words) [2] | T. cruzi (pEC50) [2] | ChromlogDpH7.4 [5]
– | – | – | – | CC[C@@H]([C@H](C)O)n1ncn(-c2ccc(N3CCN(c4ccc(OC[C@@H]5CO[C@@](Cn6cncn6)(c6ccc(F)cc6F)C5)cc4)CC3)cc2)c1=O [posaconazole] | 7 | 11 | 7 | – | – | – | –
>50 | 27 (≈ 14.3 µg/mL) | 5.2 | – | COc1ccc(S(=O)(=O)Nc2ccc(CN3CCN(C(=O)c4cc(Cl)ccc4OC)CC3)cc2)cc1 [Compound 14, N-(4-((4-(5-chloro-2-methoxybenzoyl)piperazin-1-yl)methyl)phenyl)-4-methoxybenzenesulfonamide] | – | – | – | 2 | – | – | –
0.6 | ≥ 404 | 1.9 | – | COc1ccc(S(=O)(=O)Nc2nnc(CN3CCN(C(=O)c4cccc(Cl)c4)CC3)o2)cc1 [Compound 41, N-[5-[[4-(3-chlorobenzoyl)piperazin-1-yl]methyl]-1,3,4-oxadiazol-2-yl]-4-methoxy-benzenesulfonamide] | – | – | – | > 50.1 | inactive | – | –
40 | < 1 | 5.6 | – | Cc1ccc(S(=O)(=O)Nc2ccc(CN3CCN(C(=O)c4cc5ccccc5[nH]4)CC3)cc2)cc1 [Compound 23, N-(4-((4-(1H-indole-2-carbonyl)piperazin-1-yl)methyl)phenyl)-4-methylbenzenesulfonamide] | – | – | – | 0.2 | – | – | –
>50 | 70 (≈ 32.9 µg/mL) | 4.8 | – | Cc1ccc(S(=O)(=O)Nc2ccc(CNC3CN(C(=O)c4cccc(Cl)c4)C3)cc2)cc1 [Compound 38, N-(4-(((1-(3-chlorobenzoyl)azetidin-3-yl)amino)methyl)phenyl)-4-methylbenzenesulfonamide] | – | – | – | 12.6 | – | – | –
32 | ≥ 430 | 4.1 | – | CN1CCN(S(=O)(=O)Nc2ccc(CN3CCN(C(=O)c4cccc(Cl)c4)CC3)cc2)CC1 [Compound 9, N-(4-((4-(3-chlorobenzoyl)piperazin-1-yl)methyl)phenyl)-4-methylpiperazine-1-sulfonamide] | – | – | – | 15.8 | – | – | –
>50 | 43 (≈ 21.5 µg/mL) | 5.6 | > 50 | COc1ccc(S(=O)(=O)Nc2ccc(CN3CCN(C(=O)c4cccc(Cl)c4)CC3)cc2)cc1 [Compound 4, N-(4-((4-(3-chlorobenzoyl)piperazin-1-yl)methyl)phenyl)-4-methoxybenzenesulfonamide] | – | – | – | 0.501 | – | – | –
>50 | 76 (≈ 36.8 µg/mL) | 4.8 | – | COc1ccc(S(=O)(=O)Nc2ccc(CN3CCN(C(=O)c4cccc(F)c4)CC3)cc2)cc1 [Compound 11, N-(4-((4-(3-fluorobenzoyl)piperazin-1-yl)methyl)phenyl)-4-methoxybenzenesulfonamide] | – | – | – | 0.631 | – | – | –
>50 | 367 (≈ 151 µg/mL) | 4.4 | – | CC#CC(=O)N1CCN(Cc2ccc(NS(=O)(=O)c3ccc(C)cc3)cc2)CC1 [Compound 26, N-(4-((4-(but-2-ynoyl)piperazin-1-yl)methyl)phenyl)-4-methylbenzenesulfonamide] | – | – | – | > 50.1 | inactive | – | –
2.6 | ≥ 470 | 4 | – | CS(=O)(=O)Nc1ccc(CN2CCN(C(=O)c3cccc(Cl)c3)CC2)cc1 [Compound 2, N-(4-((4-(3-chlorobenzoyl)piperazin-1-yl)methyl)phenyl)methanesulfonamide] | – | – | – | > 50.1 | complete loss of potency | – | –
1.5 | ≥ 526 | 2.3 | – | COc1ccc(S(=O)(=O)Nc2ccc(CN3CCN(C(=O)C4CCCN(C)C4)CC3)cc2)cc1 (centres unmarked) [Compound 20, 4-methoxy-N-(4-((4-(1-methylpiperidine-3-carbonyl)piperazin-1-yl)methyl)phenyl)benzenesulfonamide] | – | – | – | > 50.1 | – | – | –
>50 | 25 (≈ 12.8 µg/mL) | 5.8 | – | Cc1ccc(S(=O)(=O)Nc2ccc(CN3C[C@@H]4CN(C(=O)c5cccc(Cl)c5)C[C@@H]4C3)cc2)cc1 [Compound 35, N-(4-(((3aR,6aS)-5-(3-chlorobenzoyl)hexahydropyrrolo[3,4-c]pyrrol-2(1H)-yl)methyl)phenyl)-4-methylbenzenesulfonamide] | – | – | – | 6.31 | – | – | –
>50 | 171 (≈ 85.7 µg/mL) | 4.3 | – | COc1ccc(S(=O)(=O)Nc2ccc(CN3CCN(C(=O)c4cncc(Cl)c4)CC3)cc2)cc1 [Compound 16, N-(4-((4-(5-chloronicotinoyl)piperazin-1-yl)methyl)phenyl)-4-methoxybenzenesulfonamide] | – | – | – | 1 | – | – | –
1.0 | ≥ 345 | 3.1 | – | COc1ccc(S(=O)(=O)Nc2ncc(CN3CCN(C(=O)c4cccc(Cl)c4)CC3)cn2)cc1 [Compound 42, N-(5-((4-(3-chlorobenzoyl)piperazin-1-yl)methyl)pyrimidin-2-yl)-4-methoxybenzenesulfonamide] | – | – | – | > 50.1 | lacked any activity | – | –
>50 | 116 (≈ 54 µg/mL) | 4.6 | – | COc1ccc(S(=O)(=O)Nc2ccc(CN3CCN(C(=O)c4ccccc4)CC3)cc2)cc1 [Compound 10, N-(4-((4-benzoylpiperazin-1-yl)methyl)phenyl)-4-methoxybenzenesulfonamide] | – | – | – | 3.16 | – | – | –
>50 | 72 (≈ 34.8 µg/mL) | 4.9 | – | Cc1ccc(S(=O)(=O)Nc2ccc(CN[C@H]3CCN(C(=O)c4cccc(Cl)c4)C3)cc2)cc1 [Compound 31, (S)-N-(4-(((1-(3-chlorobenzoyl)pyrrolidin-3-yl)amino)methyl)phenyl)-4-methylbenzenesulfonamide] | – | – | – | 10 | – | – | –
44 | 486 (≈ 232 µg/mL) | 4.6 | – | O=C(c1cccc(Cl)c1)N1CCN(Cc2ccc(NS(=O)(=O)CC3CCCO3)cc2)CC1 (centres unmarked) [Compound 7, N-(4-((4-(3-chlorobenzoyl)piperazin-1-yl)methyl)phenyl)-1-(tetrahydrofuran-2-yl)methanesulfonamide] | – | – | – | 15.8 | – | – | –
1.5 | ≥ 474 | 2.9 | – | COc1ccc(S(=O)(=O)Nc2cnc(CN3CCN(C(=O)c4cccc(Cl)c4)CC3)nc2)cc1 [Compound 43, N-(2-((4-(3-chlorobenzoyl)piperazin-1-yl)methyl)pyrimidin-5-yl)-4-methoxybenzenesulfonamide] | – | – | – | > 50.1 | lacked any activity | – | –
12 | 414 (≈ 199 µg/mL) | 3.2 | – | COc1ccc(S(=O)(=O)Nc2ccc(CN3CCN(C(=O)c4ccnc(C)n4)CC3)cc2)cc1 [Compound 19, 4-methoxy-N-(4-((4-(2-methylpyrimidine-4-carbonyl)piperazin-1-yl)methyl)phenyl)benzenesulfonamide] | – | – | – | > 50.1 | – | – | –

Compound | Mouse CLi [3] [mL/min/g] | solubility [4] [µM] | chromatographic logD [5] | Clearance (mouse liver microsomal) [3] [mL/min/g] | Relapse Day ([1]; experiment a, 0.2 µM, 50-fold EC50) [days] | Relapse Day ([1]; experiment b, 0.2 µM, 50-fold EC50) [days] | Relapse Day ([1]; experiment c, 0.1 μM, 25-fold EC50) [days] | EC50 [2] [µM] | Activity in the intracellular T. cruzi assay (in words) [2] | T. cruzi (pEC50) [2] | ChromlogDpH7.4 [5]
Cc1ccc(S(=O)(=O)Nc2ccc(CN3CCN(C(=O)Cc4coc5ccccc45)CC3)cc2)cc1 [Compound 25] | >50 | 22 (≈ 11.1 µg/mL) | – | – | – | – | – | – | – | 5.2 | 5.7
4-methoxy-N-(4-((4-(1-methyl-4-oxo-1,4-dihydroquinoline-2-carbonyl)piperazin-1-yl)methyl)phenyl)benzenesulfonamide [Compound 27] | >50 | 29 | – | – | – | – | – | – | – | 5.4 | 5.4
